Values quoted from earlier work in patent US20130165511A1, “TREATMENT FOR COCAINE ADDICTION” (priority 2010, published 2013).

What was measured:
[1] = 10 mg CR, double-blind randomized study of 134 subjects with cocaine dependence, post hoc analyses
CYP2D6 = CYP2D6 (Homo sapiens, UniProt P10635)
CYP2B6 = target: T1, CYP2B6 (Homo sapiens, UniProt P20813)
T1 sequence (P20813 1-491): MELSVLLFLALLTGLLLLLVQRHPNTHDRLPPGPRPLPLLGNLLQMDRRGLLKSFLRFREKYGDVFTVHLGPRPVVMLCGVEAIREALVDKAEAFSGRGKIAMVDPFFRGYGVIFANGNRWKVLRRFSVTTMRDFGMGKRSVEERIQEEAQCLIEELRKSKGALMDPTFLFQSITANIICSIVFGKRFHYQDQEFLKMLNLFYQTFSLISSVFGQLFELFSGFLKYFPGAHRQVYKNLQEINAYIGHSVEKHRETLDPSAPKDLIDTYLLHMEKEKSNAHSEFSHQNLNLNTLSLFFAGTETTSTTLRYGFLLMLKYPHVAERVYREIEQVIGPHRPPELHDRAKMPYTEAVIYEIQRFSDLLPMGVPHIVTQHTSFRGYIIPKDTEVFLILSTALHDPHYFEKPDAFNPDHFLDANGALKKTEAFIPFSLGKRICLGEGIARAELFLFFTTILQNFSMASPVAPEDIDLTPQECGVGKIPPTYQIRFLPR

[2] = animal studies, dosage range 0.001-1.0 mg/kg
ALDH = settings: rat studies
[3] = rat studies
ALDH-I = target: T2, ALDH-I (Homo sapiens, UniProt P05091)
T2 sequence (P05091 18-517): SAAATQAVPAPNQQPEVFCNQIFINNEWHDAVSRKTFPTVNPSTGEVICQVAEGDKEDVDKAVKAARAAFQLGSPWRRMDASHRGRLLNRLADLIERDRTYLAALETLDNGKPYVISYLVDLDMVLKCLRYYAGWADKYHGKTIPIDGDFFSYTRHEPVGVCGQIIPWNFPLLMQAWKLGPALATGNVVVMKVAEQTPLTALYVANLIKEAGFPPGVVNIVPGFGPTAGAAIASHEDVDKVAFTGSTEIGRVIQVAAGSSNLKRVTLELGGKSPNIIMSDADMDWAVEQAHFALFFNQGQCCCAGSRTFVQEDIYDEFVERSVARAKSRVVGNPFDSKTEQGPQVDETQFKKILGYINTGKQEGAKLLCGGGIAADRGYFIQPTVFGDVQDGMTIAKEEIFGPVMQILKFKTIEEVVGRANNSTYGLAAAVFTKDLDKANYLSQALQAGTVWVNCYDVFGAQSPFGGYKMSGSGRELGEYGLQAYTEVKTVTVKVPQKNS

ALDH-II = target: T3, ALDH-II (Homo sapiens, UniProt P00352)
T3 sequence (P00352 1-501): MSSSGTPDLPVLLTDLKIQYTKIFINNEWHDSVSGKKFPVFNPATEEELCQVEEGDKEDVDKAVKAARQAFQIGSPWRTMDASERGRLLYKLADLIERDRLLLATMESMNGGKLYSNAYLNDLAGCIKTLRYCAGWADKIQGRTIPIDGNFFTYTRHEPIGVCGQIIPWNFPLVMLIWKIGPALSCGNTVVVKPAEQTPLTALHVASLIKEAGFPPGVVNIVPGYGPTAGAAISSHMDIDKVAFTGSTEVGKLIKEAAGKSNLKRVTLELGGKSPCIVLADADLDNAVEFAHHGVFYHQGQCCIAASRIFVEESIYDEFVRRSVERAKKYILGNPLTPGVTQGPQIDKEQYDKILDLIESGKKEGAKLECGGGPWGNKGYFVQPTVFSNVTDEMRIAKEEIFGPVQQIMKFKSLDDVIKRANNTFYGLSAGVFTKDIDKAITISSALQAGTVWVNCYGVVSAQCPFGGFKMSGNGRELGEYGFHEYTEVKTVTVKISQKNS

CYP2C19 = CYP2C19 (Homo sapiens, UniProt P33261)
CYP2C19, sequence (P33261 whole entry): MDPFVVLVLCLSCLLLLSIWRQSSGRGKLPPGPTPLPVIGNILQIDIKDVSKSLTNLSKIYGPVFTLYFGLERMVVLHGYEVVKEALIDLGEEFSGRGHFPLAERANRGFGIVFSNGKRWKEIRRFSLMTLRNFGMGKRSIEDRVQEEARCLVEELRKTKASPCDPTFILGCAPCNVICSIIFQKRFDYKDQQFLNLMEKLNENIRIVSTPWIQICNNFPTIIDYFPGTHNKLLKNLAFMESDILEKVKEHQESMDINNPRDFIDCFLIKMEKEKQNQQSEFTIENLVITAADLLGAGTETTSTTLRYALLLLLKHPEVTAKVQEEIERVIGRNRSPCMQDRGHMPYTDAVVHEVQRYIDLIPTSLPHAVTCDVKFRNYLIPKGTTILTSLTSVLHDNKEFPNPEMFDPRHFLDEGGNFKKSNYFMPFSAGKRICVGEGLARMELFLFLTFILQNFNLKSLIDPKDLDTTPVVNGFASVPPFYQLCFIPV

CYP2D6, sequence (P10635 whole entry): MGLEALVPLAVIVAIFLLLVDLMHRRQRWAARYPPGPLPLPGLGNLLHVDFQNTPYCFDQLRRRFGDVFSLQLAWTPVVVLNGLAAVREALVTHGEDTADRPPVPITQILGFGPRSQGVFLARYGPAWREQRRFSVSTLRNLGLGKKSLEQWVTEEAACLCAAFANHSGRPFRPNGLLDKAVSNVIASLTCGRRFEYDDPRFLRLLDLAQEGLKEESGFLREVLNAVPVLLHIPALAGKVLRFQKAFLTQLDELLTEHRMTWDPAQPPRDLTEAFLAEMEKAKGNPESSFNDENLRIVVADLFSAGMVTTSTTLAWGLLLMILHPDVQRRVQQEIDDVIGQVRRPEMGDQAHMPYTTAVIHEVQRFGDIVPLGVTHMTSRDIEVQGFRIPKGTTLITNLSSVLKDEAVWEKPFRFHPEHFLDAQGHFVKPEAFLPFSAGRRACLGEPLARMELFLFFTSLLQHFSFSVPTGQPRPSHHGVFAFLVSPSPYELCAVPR

In the case of `C#CCN(C)[C@H](C)Cc1ccccc1` [selegiline], the “self-reported 'high' and 'stimulated' feelings after cocaine administration, area under the curve” value (10 mg CR formulation, eight subjects) is given as “decreased”, the “reduction in subjective euphoria” value (selegiline 10 mg po/day followed by acute cocaine infusion, PET study) is given as 40% and the “composite score of urine benzoylecgonine (BE), self report and observed improvement” value [1] is given as “statistically significant effect”. The “inhibition of CYP2D6” value (CYP2D6) was “concentration dependent inhibition”, the “inhibition of CYP2B6” value (CYP2B6) was “concentration dependent inhibition” and the “safety and abuse potential” value [2] was “safe agent without potential abuse”.

In the case of “N5-(hydroxycyclopropyl)-L-glutamine [coprine]”, the “ALDH inhibition compared to disulfiram” value (ALDH) is given as “more potent inhibitor” and the ethanol consumption [3] is given as “effectively suppressed”.

In the case of `N#CN` [cyanamide], the “inhibition of ALDH-I in vitro” value (ALDH-I; in vitro) is given as “unable to inhibit” and the “inhibition of ALDH-II in vitro” value (ALDH-II) is given as “unable to inhibit”.

For `O=c1c(-c2ccc(O)cc2)coc2cc(O[C@@H]3O[C@H](CO)[C@@H](O)[C@H](O)[C@H]3O)ccc12` [Daidzin, daidzin], the “inhibition of ALDH-I” value (ALDH-I) is given as “selective potent reversible inhibitor”.

For `C#CCNC(C)Cc1ccccc1` (centres unmarked) [N-des methyl selegiline], the “inhibition of CYP2D6” value (CYP2D6) is given as “concentration dependent inhibition”, the “inhibition of CYP2C19” value (CYP2C19) is given as “concentration dependent inhibition” and the “inhibition of CYP2B6” value (CYP2B6) is given as “concentration dependent inhibition”.
